Results taken from patent US7674787B2, “Conformationally constrained Smac mimetics and the uses thereof” (The Regents of the University of Michigan, priority 2004, dated 2010).
Read-outs that look alike come from different tables or passages of the source. Where a SMILES comes first, the peptide text is derived from it. [ ]: non-standard residue; d: D form. The star is where a group is joined. 6FAM = O=C1OC2(c3ccc(O)cc3Oc3cc(O)ccc32)c2cc(C(=O)*)ccc21; Abu = CC[C@H](N)C(=O)O

Assays:
XIAP BIR3 = XIAP BIR3 (Homo sapiens, UniProt P98170); assay: biochemical
Sequence of XIAP BIR3 (P98170 241-356): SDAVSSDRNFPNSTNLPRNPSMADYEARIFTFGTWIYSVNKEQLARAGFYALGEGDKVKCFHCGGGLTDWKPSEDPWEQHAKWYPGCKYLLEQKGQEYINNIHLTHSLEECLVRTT

PC-3 cells = assay: Apoptosis by Annexin V-FITC staining in PC-3 cells; assay type: cell-based, human; conditions: for cells undergoing apoptosis as compared to control cells: 42 hours; for potentiation of CDDP activity in inducing apoptosis: PC-3 cells or MDA-231 cells
From the text: SH-97, a peptido-mimetic in which the side chain of alanine has been replaced with an ethyl group and the isoleucine has been replaced with a diphenylmethyl group, was used to test the basic premise. Of note, SH-97 still has two natural amino acids (valine and proline) and one natural peptide bond. […] The experiment used PC-3 cells which express high levels of XIAP and cIAP-1/2 proteins and cisplatin (CDDP) as the chemotherapeutic drug. CDDP is a DNA damaging agent and can effectively induce apoptosis in PC-3 cells and is also a clinically used chemotherapeutic drug for prostate cancer.
PC-3 cells were treated with CDDP, Smac peptides and mimetics alone or in combination for 42 hours and apoptosis was analyzed by Annexin V-FITC staining. […] Combination of 25 μM CDDP and 10 μM or 25 μM SH-97 induced 29.3%±1.9% and 35.8%±0.4% apoptosis over control cells, respectively (FIG. 18A).
Similar experiments were performed with SH-102 (Table 5). PC-3 cells in 6-well plates were treated with SH-102 and CDDP, alone or in combination, for 42 hours. Cells were collected and stained with Annexin V-FITC and propidium iodide. The fluorescence of Annexin V-FITC and propidium iodide of individual cells was analyzed by flow cytometry. […] Combination of 25 μM CDDP and 10 μM SH-102 induced 32% apoptosis over control cells (FIG. 19).
The same experiment was performed using TAXOTERE (docetaxel), another cancer chemotherapeutic drug. PC-3 cells in 6-well plates were treated with SH-102 and TAXOTERE, alone or in combination, for 42 hours. Cells were collected and stained with Annexin V-FITC and propidium iodide. The fluorescence of Annexin V-FITC and propidium iodide of individual cells was analyzed by flow cytometry. […] Combination of 10 μM TAXOTERE and 10 μM SH-102 induced about 18% apoptosis over control cells (FIG. 21).

MDA-231 cells = assay: Apoptosis by Annexin V-FITC/propidium iodide in MDA-231 cells; assay type: cell-based, human; conditions: for cells undergoing apoptosis as compared to control cells: 42 hours
Description: Similar experiments were performed using the breast cancer cell line MDA-231. MDA-231 cells in 6-well plates were treated with SH-102 and CDDP, alone or in combination, for 42 hours. Cells were collected and stained with Annexin V-FITC and propidium iodide. The fluorescence of Annexin V-FITC and propidium iodide of individual cells was analyzed by flow cytometry. 25 μM and 50 μM CDDP induced about 25% and 42% of MDA-231 cells to undergo apoptosis as compared to control cells, respectively (FIG. 22). […] Combination of 25 and 50 μM CDDP and 10 μM SH-102 induced about 35% and 75% apoptosis over control cells, respectively (FIG. 22).

[1] = system: MDA-435, MDA-468, and T47D cells; assay: Cell growth inhibition, WST-8, breast cancer cell lines; assay type: cell-based, human; conditions: 5 days, all three cell lines
Description: To test the effect of Smac mimetics by themselves in inhibition of cell growth in human cancer cells, SH-102 was administered to three different breast cancer cell lines. MDA-435, MDA-468, and T47D cells were seeded in 96-well plates with increasing concentrations of SH-102, Smac8, or Smac8-C. The cells were then incubated at 37° C. with 5% CO2 for 5 days, followed by detection of cell viability with WST-8 (10% Dojindo solution in IMEM with 10% FCS). OD values at 450 nm with reference at 650 nm were read approximately 3 hours later. Untreated cells were used as 100% growth. […]. […] (FIGS. 26A-26C).

[2] = system: BT-549, MDA-MB-231 (subclone 2LMP), MDA-MB-231 (ATCC) and PC-3 cells; assay: Cell growth inhibition, WST-8, cancer cell lines; assay type: cell-based, human; conditions: 5 days, WST-8; each of the cancer cell lines
Description: To test the effect of [6.3.0] Smac mimetics in inhibition of cell growth in human cancer cells, compounds were administered to several different cancer cell lines. BT-549, MDA-MB-231 (subclone 2LMP), and MDA-MB-231 (ATCC) human breast cancer cells and PC-3 human prostate cancer cells were seeded in 96-well plates with increasing concentrations of the compounds. To assay for the selectivity of the compounds for cancer cells, normal prostate epithelial cells were also tested. The cells were then incubated at 37° C. with 5% CO2 for 5 days, followed by detection of cell viability with WST-8. Untreated cells were used as 100% growth. The compounds tested were SH-109, SH-122 and SH-123 (Table 6).

[3] = target: T1, human XIAP-BIR3 protein (residues 241-356) (Homo sapiens, UniProt P98170); assay: Fluorescence polarization saturation binding of labeled Smac peptides
T1 construct: The human XIAP-BIR3 protein (residues 241-356) with a His tag
T1 sequence (P98170 241-356): as above
From the text: A quantitative in vitro binding assay using fluorescence polarization was developed.

| Ki (XIAP BIR3) [µM] | Molecule | further results |
| --- | --- | --- |
| > 200 | C[C@H](N)C(=O)N[C@H]1CC[C@H]2CC[C@@H](C(=O)Nc3ccccc3)N2C1=O [SH-69] | – |
| – | CC(=O)O[C@@]12CO[C@@H]1C[C@H](O)[C@@]1(C)C(=O)[C@H](O)C3=C(C)[C@@H](OC(=O)[C@H](O)[C@@H](NC(=O)OC(C)(C)C)c4ccccc4)C[C@@](O)([C@@H](OC(=O)c4ccccc4)[C@H]21)C3(C)C [TAXOTERE, docetaxel, reference compound] | cells undergoing apoptosis as compared to control cells (PC-3 cells; 10 μM TAXOTERE alone): about 5%; cells undergoing apoptosis as compared to control cells (PC-3 cells; 20 μM TAXOTERE alone): ~8% |
| 9.98 | C[C@H](N)C(=O)N[C@H]1CC[C@H]2CC[C@@H](C(=O)NCc3ccoc3)N2C1=O [SH-84] | – |
| – | CCC[C@H](N)C(=O)N[C@H]1CC[C@H]2CC[C@@H](C(=O)NCc3ccccc3)N2C1=O [SH-93] | potentiation of CDDP activity in inducing apoptosis (PC-3 cells): unable to potentiate the activity of CDDP; Ki (XIAP BIR3; Ki (μM), Table 5): > 100 µM; effect of combination with CDDP on apoptosis (MDA-231 cells; 25 and 50 μM CDDP + 25 μM SH-93, 42 hours): no significant effect |
| 0.016 | CC[C@H](N)C(=O)N[C@H]1CCCC[C@H]2CC[C@@H](C(=O)N[C@@H](c3ccccc3)c3ccc(C)cc3)N2C1=O [SH-118] | – |
| > 200 | C[C@H](N)C(=O)N[C@H]1CC[C@H]2CC[C@@H](C(=O)N[C@@H](C)c3ccccc3)N2C1=O [SH-71] | – |
| – | AVPIAQKS [Smac-8, Smac peptide without a carrier peptide, negative control, reference compound] | cell growth inhibition (in words) [1]: essentially ineffective; potentiation of CDDP activity in inducing apoptosis (PC-3 cells): unable to potentiate the activity of CDDP |
| > 40 | CC[C@H](N)CC[C@H]1CCC[C@H]2CC[C@@H](C(=O)NC(c3ccccc3)c3ccccc3)N2C1=O [SH-107] | – |
| 26.3 | C[C@H](N)C(=O)N[C@H]1CC[C@H]2CC[C@@H](C(=O)NCc3ccccc3Br)N2C1=O [SH-73] | – |
| 0.092 | CC[C@H](N)C(=O)N[C@H]1CCCC[C@H]2CC[C@@H](C(=O)N[C@H](c3ccccc3)c3ccc(C)cc3)N2C1=O [SH-115] | – |
| 19.6 | C[C@H](N)C(=O)N[C@H]1CC[C@H]2CC[C@@H](C(=O)NCc3ccc(Br)cc3)N2C1=O [SH-75] | – |
| 0.027 | CC[C@H](N)C(=O)N[C@H]1CCCC[C@H]2CC[C@@H](C(=O)N[C@H](c3ccccc3)c3cccc(C)c3)N2C1=O [SH-114] | – |
| 6.28 | C[C@H](N)C(=O)N[C@H]1CC[C@H]2CC[C@@H](C(=O)NCc3ccsc3)N2C1=O [SH-85] | – |
| – | [NH2][Pt]([NH2])([Cl])[Cl] [CDDP, cisplatin, reference compound] | cells undergoing apoptosis as compared to control cells (PC-3 cells; 50 μM CDDP alone): ~25%; cells undergoing apoptosis as compared to control cells (MDA-231 cells; 25 μM CDDP alone): about 25%; cells undergoing apoptosis as compared to control cells (MDA-231 cells; 50 μM CDDP alone): ~42% |
| 0.019 | CC[C@H](N)C(=O)N[C@H]1CCCC[C@H]2CC[C@@H](C(=O)N[C@@H](c3ccccc3)c3ccccc3C)N2C1=O [SH-116] | – |
| 8.51 | CC[C@H](N)C(=O)N[C@H]1CC[C@H]2CC[C@@H](C(=O)N[C@@H](Cc3ccccc3)c3ccccc3)N2C1=O [SH-100] | – |
| 0.028 | CC[C@H](N)C(=O)N[C@H]1CCCC[C@H]2CC[C@@H](C(=O)NC(c3ccccc3)c3ccccc3)N2C1=O [SH-109] | cell growth inhibition (in words) [2]: inhibited the cell growth |

| Ki (XIAP BIR3) [µM] | Molecule | further results |
| --- | --- | --- |
| 8.88 | C[C@H](N)C(=O)N[C@H]1CC[C@H]2CC[C@@H](C(=O)N[C@H](C)c3ccccc3)N2C1=O [SH-72] | – |
| 12.2 | C[C@H](N)C(=O)N[C@H]1CC[C@H]2CC[C@@H](C(=O)NCc3cccc(Cl)c3)N2C1=O [SH-78] | – |
| 0.14 | CC[C@H](N)C(=O)N[C@H]1CCCC[C@H]2CC[C@@H](C(=O)N[C@H](c3ccccc3)c3ccccc3C)N2C1=O [SH-113] | – |
| 0.29 ± 0.06 | CC(C)C(NC(=O)[C@H](C)N)C(=O)C1CCC[C@H]1C(=O)NCc1ccccc1 (stereo partly drawn) [Compound 1] | – |
| 0.03 | CC[C@@H](C(=O)N[C@H]1CCCC[C@H]2CC[C@@H](C(=O)NC(c3ccccc3)c3ccccc3)N2C1=O)N(C)C [SH-125] | – |
| 0.023 | CC[C@H](N)C(=O)N[C@H]1CCCC[C@H]2CC[C@@H](C(=O)N[C@@H](c3ccccc3)c3ccc4ccccc4c3)N2C1=O [SH-120] | – |
| 0.012 | CC[C@H](N)C(=O)N[C@H]1CCCC[C@H]2CC[C@@H](C(=O)N[C@@H](c3ccccc3)c3cccc(C)c3)N2C1=O [SH-117] | – |
| 2.01 | C[C@H](N)C(=O)N[C@H]1CCC[C@H]2CC[C@@H](COC(c3ccccc3)c3ccccc3)N2C1=O [SH-106] | – |
| 44.4 | Cc1cccc(CNC(=O)[C@@H]2CC[C@@H]3CC[C@H](NC(=O)[C@H](C)N)C(=O)N32)c1 [SH-77] | – |
| 9.62 | C[C@H](N)C(=O)N[C@H]1CC[C@H]2CC[C@@H](C(=O)NCc3cccc(Br)c3)N2C1=O [SH-74] | – |
| > 200 | C[C@H](N)C(=O)N[C@H]1CC[C@H]2CC[C@@H](C(=O)NCCc3c[nH]c4ccccc34)N2C1=O [SH-79] | – |
| > 10 | C[C@H](O)C(=O)N[C@H]1CCCC[C@H]2CC[C@@H](C(=O)NC(c3ccccc3)c3ccccc3)N2C1=O [SH-123] | cell growth inhibition (in words) [2]: inhibited the cell growth |
| 0.06 | CC[C@H](N)C(=O)N[C@H]1CCC[C@H]2CC[C@@H](C(=O)NCc3ccccc3)N2C1=O [Compound 33] | Ki (XIAP BIR3; Ki): 0.06 µM; Ki (XIAP BIR3; Ki (μM), Table 4, [5.3.0] bicyclic lactam system): 0.06 ± 0.015 µM |
| – | CC[C@H](N)C(=O)N[C@@H](CCCNC(=N)N)C(=O)N1CCC[C@H]1C(=O)N[C@@H](Cc1ccccc1)C(=O)N[C@@H](CCCCNC(=O)c1ccc2c(c1)C1(OC2=O)c2ccc(O)cc2Oc2cc(O)ccc21)C(=O)O [SM5F, AbuRPFK-FAM] (H-[Abu]RPFK(6FAM)-OH; N-terminus and C-terminus assumed) | ratio of the Kd values between labeled SM5F and S9F ([3]; SM5F versus S9F): 7.2 fold; binding affinity higher than natural Smac peptide S9F ([3]; relative to S9F): about 10 times |
| 0.059 | C[C@H](N)C(=O)N[C@H]1CCC[C@H]2CC[C@@H](C(=O)NC(c3ccccc3)c3ccccc3)N2C1=O [SH-104] | – |
| 0.12 | CC[C@H](N)C(=O)N[C@H]1CCCC[C@H]2CC[C@@H](C(=O)N[C@H](c3ccccc3)c3ccc4ccccc4c3)N2C1=O [SH-119] | – |

| Molecule | Ki (XIAP BIR3) [µM] | further results |
| --- | --- | --- |
| C[C@H](N)C(=O)N[C@H]1CC[C@H]2CC[C@@H](C(=O)N[C@H](Cc3ccccc3)C(N)=O)N2C1=O [SH-92] | 9.98 | – |
